Values quoted from earlier work in patent US20050244461A1, “Controlled release drug delivery systems and methods for treatment of an eye” (Allergan, Inc., priority 2004, published 2005).

Conditions: in vivo efficacy; 25 mg hydrocortisone equivalent to 1 mg dexamethasone; Goodman and Gilman

C[C@]12CCC(=O)C=C1CC[C@@H]1[C@@H]2[C@@H](O)C[C@@]2(C)[C@H]1CC[C@]2(O)C(=O)CO [hydrocortisone]
Potency relative to dexamethasone: approximately twentyfivefold less potent than dexamethasone
